PubChem BioAssay AID1963843 (Molecular Pharmacology Branch, DTP, NCI, 2024)

Tested on: 616215-338-R-J1-PDC complex spheroid viability
Test: Anticancer human tumor 616215-338-R-J1-PDC patient-derived colon adenocarcinoma cell line growth inhibition [POLQ]
Settings: for IC50: curve of first compound; for viability, T/C: stronger effect = lower value
Outline: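 Growth inhibition in 3D: complex spheroids (tumor PDC, HUVEC, MSC) treated with POLQ inhibitor combinations; where Cmax unknown, highest tested concentration 10 microM, except SN-38 at 1 microM.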

[1] = second compound 0.0316 µM, first compound 0.0316 µM
[2] = second compound 0.0316 µM, first compound 0.1 µM
[3] = second compound 0.0316 µM, first compound 0.316 µM
[4] = second compound 0.0316 µM, first compound 1 µM
[5] = second compound 0.0316 µM, first compound 3.16 µM
[6] = second compound 0.0316 µM, first compound 10 µM
[7] = second compound 0.1 µM, first compound 0.0316 µM
[8] = second compound 0.1 µM, first compound 0.1 µM
[9] = second compound 0.1 µM, first compound 0.316 µM
[10] = second compound 0.1 µM, first compound 1 µM
[11] = second compound 0.1 µM, first compound 3.16 µM
[12] = second compound 0.1 µM, first compound 10 µM
[13] = second compound 0.316 µM, first compound 0.0316 µM
[14] = second compound 0.316 µM, first compound 0.1 µM
[15] = second compound 0.316 µM, first compound 0.316 µM
[16] = second compound 0.316 µM, first compound 1 µM
[17] = second compound 0.316 µM, first compound 3.16 µM
[18] = second compound 0.316 µM, first compound 10 µM
[19] = second compound 1 µM, first compound 0.0316 µM
[20] = second compound 1 µM, first compound 0.1 µM
[21] = second compound 1 µM, first compound 0.316 µM
[22] = second compound 1 µM, first compound 1 µM
[23] = second compound 1 µM, first compound 3.16 µM
[24] = second compound 1 µM, first compound 10 µM
[25] = second compound 3.16 µM, first compound 0.0316 µM
[26] = second compound 3.16 µM, first compound 0.1 µM
[27] = second compound 3.16 µM, first compound 0.316 µM
[28] = second compound 3.16 µM, first compound 1 µM
[29] = second compound 3.16 µM, first compound 3.16 µM
[30] = second compound 3.16 µM, first compound 10 µM
[31] = second compound 10 µM, first compound 0.0316 µM
[32] = second compound 10 µM, first compound 0.1 µM
[33] = second compound 10 µM, first compound 0.316 µM
[34] = second compound 10 µM, first compound 1 µM
[35] = second compound 10 µM, first compound 3.16 µM
[36] = second compound 10 µM, first compound 10 µM
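Also: spheroids exposed to compounds for one week before readout.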
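For viability, T/C in this document: percent viability relative to DMSO vehicle wells taken as 100%.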

`CC(=O)O[C@H]1C(=O)[C@@]2(C)[C@H]([C@H](OC(=O)c3ccccc3)[C@]3(O)C[C@H](OC(=O)[C@H](O)[C@@H](NC(=O)c4ccccc4)c4ccccc4)C(C)=C1C3(C)C)[C@]1(OC(C)=O)CO[C@@H]1C[C@@H]2O` + Nc1ccc(C#CCN(C(=O)Cc2ncc(C(F)(F)F)cc2C(F)(F)F)c2ccc(F)cc2)nn1 was tested, and the IC50 (second compound 0.0316 µM) was < 9.49 nM, the IC50 (second compound 0.1 µM) was < 9.49 nM and the IC50 (second compound 0.316 µM) was < 9.49 nM. The IC50 (second compound 1 µM) was < 9.49 nM, the IC50 (second compound 3.16 µM) was < 9.49 nM and the IC50 (second compound 10 µM) was < 9.49 nM. For the same compound, the viability, T/C (second compound 0.0316 µM, first compound 0.00949 µM) was 38.1%, the viability, T/C (second compound 0.0316 µM, first compound 0.03 µM) was 25.5% and the viability, T/C (second compound 0.0316 µM, first compound 0.0949 µM) was 22.9%. It also gave a viability, T/C (second compound 0.0316 µM, first compound 0.3 µM) of 18.4%, a viability, T/C (second compound 0.0316 µM, first compound 0.949 µM) of 16.6% and a viability, T/C (second compound 0.0316 µM, first compound 3 µM) of 17.7%. It also gave a viability, T/C (second compound 0.1 µM, first compound 0.00949 µM) of 50%, a viability, T/C (second compound 0.1 µM, first compound 0.03 µM) of 24.6% and a viability, T/C (second compound 0.1 µM, first compound 0.0949 µM) of 21.3%. For the same compound, the viability, T/C (second compound 0.1 µM, first compound 0.3 µM) was 17.4%, the viability, T/C (second compound 0.1 µM, first compound 0.949 µM) was 17.6% and the viability, T/C (second compound 0.1 µM, first compound 3 µM) was 19%. For the same compound, the viability, T/C (second compound 0.316 µM, first compound 0.00949 µM) was 42.3%, the viability, T/C (second compound 0.316 µM, first compound 0.03 µM) was 22.4% and the viability, T/C (second compound 0.316 µM, first compound 0.0949 µM) was 20.9%. The viability, T/C (second compound 0.316 µM, first compound 0.3 µM) was 19.1%, the viability, T/C (second compound 0.316 µM, first compound 0.949 µM) was 16.8% and the viability, T/C (second compound 0.316 µM, first compound 3 µM) was 14.8%. The viability, T/C (second compound 1 µM, first compound 0.00949 µM) was 41.1%, the viability, T/C (second compound 1 µM, first compound 0.03 µM) was 25% and the viability, T/C (second compound 1 µM, first compound 0.0949 µM) was 24.1%. It also gave a viability, T/C (second compound 1 µM, first compound 0.3 µM) of 26.1%, a viability, T/C (second compound 1 µM, first compound 0.949 µM) of 14% and a viability, T/C (second compound 1 µM, first compound 3 µM) of 16.6%. It also gave a viability, T/C (second compound 3.16 µM, first compound 0.00949 µM) of 30.2%, a viability, T/C (second compound 3.16 µM, first compound 0.03 µM) of 22.1% and a viability, T/C (second compound 3.16 µM, first compound 0.0949 µM) of 22.4%. The viability, T/C (second compound 3.16 µM, first compound 0.3 µM) was 20.2%, the viability, T/C (second compound 3.16 µM, first compound 0.949 µM) was 16.5% and the viability, T/C (second compound 3.16 µM, first compound 3 µM) was 15.1%. The viability, T/C (second compound 10 µM, first compound 0.00949 µM) was 36.9%, the viability, T/C (second compound 10 µM, first compound 0.03 µM) was 25% and the viability, T/C (second compound 10 µM, first compound 0.0949 µM) was 23.3%. The viability, T/C (second compound 10 µM, first compound 0.3 µM) was 18.4%, the viability, T/C (second compound 10 µM, first compound 0.949 µM) was 18.1% and the viability, T/C (second compound 10 µM, first compound 3 µM) was 21.6%.
`COc1cc(C2c3cc4c(cc3C(OC3OC5COC(C)OC5C(O)C3O)C3COC(=O)C23)OCO4)cc(OC)c1O` (stereo unspecified) + Nc1ccc(C#CCN(C(=O)Cc2ncc(C(F)(F)F)cc2C(F)(F)F)c2ccc(F)cc2)nn1 showed an IC50 (second compound 0.0316 µM) of 327 nM, an IC50 (second compound 0.1 µM) of 812 nM and an IC50 (second compound 0.316 µM) of 732 nM. For the same compound, the IC50 (second compound 1 µM) was 489 nM, the IC50 (second compound 3.16 µM) was 314 nM and the IC50 (second compound 10 µM) was 268 nM. For the same compound, the viability, T/C [1] was 106%, the viability, T/C [2] was 83.9% and the viability, T/C [3] was 46.2%. The viability, T/C [4] was 45.8%, the viability, T/C [5] was 41.9% and the viability, T/C [6] was 24.9%. It also gave a viability, T/C [7] of 107%, a viability, T/C [8] of 92.4% and a viability, T/C [9] of 57.6%. It also gave a viability, T/C [10] of 51.3%, a viability, T/C [11] of 36.4% and a viability, T/C [12] of 27.7%. It also gave a viability, T/C [13] of 108%, a viability, T/C [14] of 87.8% and a viability, T/C [15] of 65.4%. The viability, T/C [16] was 42.3%, the viability, T/C [17] was 35.9% and the viability, T/C [18] was 26.4%. The viability, T/C [19] was 98.4%, the viability, T/C [20] was 86.3% and the viability, T/C [21] was 56.5%. For the same compound, the viability, T/C [22] was 37%, the viability, T/C [23] was 36% and the viability, T/C [24] was 24.8%. For the same compound, the viability, T/C [25] was 94.7%, the viability, T/C [26] was 67.5% and the viability, T/C [27] was 48.6%. For the same compound, the viability, T/C [28] was 37.9%, the viability, T/C [29] was 38.3% and the viability, T/C [30] was 24.4%. For the same compound, the viability, T/C [31] was 83.4%, the viability, T/C [32] was 64% and the viability, T/C [33] was 49.8%. The viability, T/C [34] was 34.3%, the viability, T/C [35] was 32.3% and the viability, T/C [36] was 30.9%.
For `O=c1[nH]cc(F)c(=O)[nH]1` + Nc1ccc(C#CCN(C(=O)Cc2ncc(C(F)(F)F)cc2C(F)(F)F)c2ccc(F)cc2)nn1, the IC50 (second compound 0.0316 µM) was 479 nM, the IC50 (second compound 0.1 µM) was 509 nM and the IC50 (second compound 0.316 µM) was 529 nM. The IC50 (second compound 1 µM) was 529 nM, the IC50 (second compound 3.16 µM) was 278 nM and the IC50 (second compound 10 µM) was 437 nM. For the same compound, the viability, T/C [1] was 101%, the viability, T/C [2] was 82.2% and the viability, T/C [3] was 56.6%. It also gave a viability, T/C [4] of 38.9%, a viability, T/C [5] of 35.9% and a viability, T/C [6] of 37.5%. For the same compound, the viability, T/C [7] was 93.3%, the viability, T/C [8] was 92.2% and the viability, T/C [9] was 53.7%. For the same compound, the viability, T/C [10] was 43.5%, the viability, T/C [11] was 44.9% and the viability, T/C [12] was 45.6%. For the same compound, the viability, T/C [13] was 103%, the viability, T/C [14] was 77.6% and the viability, T/C [15] was 60.6%. For the same compound, the viability, T/C [16] was 35.6%, the viability, T/C [17] was 42% and the viability, T/C [18] was 39.7%. For the same compound, the viability, T/C [19] was 97.5%, the viability, T/C [20] was 89.7% and the viability, T/C [21] was 57.5%. For the same compound, the viability, T/C [22] was 40.7%, the viability, T/C [23] was 38.4% and the viability, T/C [24] was 39.7%. For the same compound, the viability, T/C [25] was 95.1%, the viability, T/C [26] was 90.5% and the viability, T/C [27] was 44.8%. For the same compound, the viability, T/C [28] was 41.6%, the viability, T/C [29] was 36.4% and the viability, T/C [30] was 37.5%. It also gave a viability, T/C [31] of 91.1%, a viability, T/C [32] of 75.7% and a viability, T/C [33] of 55.5%. The viability, T/C [34] was 38.2%, the viability, T/C [35] was 35.7% and the viability, T/C [36] was 37.6%.
